Read-outs that look alike come from different tables or passages of the source.
What was measured:
[1] = system: P. falciparum clinical isolates; assay: Ex vivo drug susceptibility assay (schizont maturation) on clinical isolates; type: cell-based; details: ex vivo clinical isolates, n = 15, read-out: P. falciparum median EC50 (range)
Method: (§1) Plasmodium isolates were collected from patients attending public health clinics in Timika (Papua, Indonesia), a region endemic for multidrug-resistant strains of P. vivax and P. falciparum ([38][–][40]). Patients with symptomatic malaria presenting to an outpatient facility were recruited into the study if infected with either P. falciparum or P. vivax, with a parasitemia of between 2,000 µL^−1 and 80,000 µL^−1, and the majority (>60%) of asexual parasites at the ring stage of development. Venous blood (5 mL) was collected by venipuncture, and after removal of patient white blood cells using Plasmodipur filters (EuroProxima B.V., The Netherlands), packed infected red blood cells (iRBCs) were used for the ex vivo drug susceptibility assay.
(§2) Drug plates were pre-dosed by diluting the compounds in 50% methanol followed by lyophilization and storage at 4°C. Drug susceptibility of P. vivax and P. falciparum isolates was measured using a protocol modified from the WHO microtest as described previously ([40], [41]). […] A candle jar was used to mature the parasites at 37.0°C for 35–56 h. […] Thick blood films made from each well were stained with 5% Giemsa solution for 30 min and examined microscopically. The number of schizonts per 200 asexual-stage parasites was determined for each drug concentration and normalized to the control well without drug. The dose response data were analyzed using non-linear regression analysis, and the EC50 value was derived using an inhibitory sigmoid Emax model (In Vitro Analysis and Reporting Tool [IVART] [42, 43]).

[2] = system: P. vivax clinical isolates; assay: as above; type: cell-based; details: ex vivo clinical isolates, n = 6, read-out: P. vivax median EC50 (range)
Method: as §1, §2

[3] = system: PfNF54-s16-GFP mature (V) stage gametocytes; assay: Image-based gametocyte viability assay; type: cell-based, P. falciparum; details: Plasmodium falciparum, 72 h, read-out: IC50 Mature-stage Gametocytes (mean ± SD)
Method: (§3) Viability assays were performed as described previously ([32], [33]) against PfNF54-s16-GFP early(I–III), late (IV–V), and mature (V) stage gametocytes. Gametocytes were assessed at the appropriate time points following gametogenesis; early stage (day 2), late stage (day 8), and mature stage (day 12). Compounds diluted in 4% DMSO were transferred into 384-well imaging plates; gametocytes prepared as described previously (35) were added, and plates were incubated for 72 h in 5% CO2, 5% O2, and 60% humidity at 37°C. After 72 h incubation, 5 µL of MitoTracker Red CMH2XRos in phosphate buffered saline (PBS) was added per well, and plates were incubated overnight. Image acquisition and analysis were undertaken on the Opera QEHS micro-plate confocal imaging system. An Acapella-based script using the CMH2XRos fluorescent signal and the GFP-designated object quantifying viable stage-dependent parasite morphology identified gametocytes. Gametocyte viability was calculated as a percentage of the positive (5 µM puromycin) and negative (0.4% DMSO) controls. IC50 values were calculated using a 4-parameter log dose, non-linear regression analysis, with sigmoidal dose response (variable slope) curve fit using GraphPad Prism (ver 4.0). No constraints were used in the curve fit. […] Experiments were performed as two or three biological replicates in duplicate.

[4] = system: PfNF54-s16-GFP late (IV–V) stage gametocytes; assay: Image-based gametocyte viability assay; type: cell-based, P. falciparum; details: Plasmodium falciparum; stages IV–V, 72 h; read-out: IC50 Late-stage Gametocytes (mean ± SD)
Method: as §3

Pv-M1 = Pv-M1 (Plasmodium vivax, UniProt A5JZA9); assay: Recombinant aminopeptidase fluorescence assay (H-Leu-NHMec); type: biochemical, P. vivax
Pv-M1, sequence (A5JZA9 entry or part of it): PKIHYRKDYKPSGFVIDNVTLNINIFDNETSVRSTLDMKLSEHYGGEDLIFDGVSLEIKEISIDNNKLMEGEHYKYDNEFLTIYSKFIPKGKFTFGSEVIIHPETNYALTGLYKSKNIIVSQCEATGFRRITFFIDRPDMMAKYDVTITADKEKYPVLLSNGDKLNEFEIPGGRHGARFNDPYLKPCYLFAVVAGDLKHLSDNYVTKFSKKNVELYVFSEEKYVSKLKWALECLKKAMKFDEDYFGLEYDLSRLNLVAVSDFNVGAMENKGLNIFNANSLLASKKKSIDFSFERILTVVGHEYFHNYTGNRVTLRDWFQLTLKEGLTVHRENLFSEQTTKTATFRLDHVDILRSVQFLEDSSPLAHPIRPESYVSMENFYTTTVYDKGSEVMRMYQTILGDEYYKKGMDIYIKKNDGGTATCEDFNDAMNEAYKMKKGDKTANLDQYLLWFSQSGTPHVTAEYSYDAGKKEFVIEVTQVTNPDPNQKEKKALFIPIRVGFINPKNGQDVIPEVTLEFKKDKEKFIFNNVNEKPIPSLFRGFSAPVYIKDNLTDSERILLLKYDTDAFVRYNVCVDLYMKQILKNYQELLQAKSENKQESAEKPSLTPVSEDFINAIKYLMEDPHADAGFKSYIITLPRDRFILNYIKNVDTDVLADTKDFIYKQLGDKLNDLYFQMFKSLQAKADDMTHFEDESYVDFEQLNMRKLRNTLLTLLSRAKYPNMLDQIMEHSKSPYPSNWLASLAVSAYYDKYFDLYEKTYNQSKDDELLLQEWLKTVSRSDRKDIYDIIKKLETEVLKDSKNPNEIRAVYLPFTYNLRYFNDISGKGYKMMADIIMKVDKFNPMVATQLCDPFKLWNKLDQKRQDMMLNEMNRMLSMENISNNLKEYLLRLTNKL
Method: (§4) Inhibition of aminopeptidase activity assays were performed against nine aminopeptidases: the M1 alanyl and M17 leucyl aminopeptidases from P. falciparum (PfA-M1; PfA-M17), P. vivax (Pv-M1; Pv-M17), and P. berghei (Pb-M1; Pb-M17), and three human M1 homologs: LTA4H (OriGene TP307617), ERAP1 (OriGene TP314469), and ERAP2 (Creative BioMart ERAP2-304H). The Plasmodium enzymes were produced recombinantly as described previously ([16], [17]), and the human recombinant enzymes were purchased from commercial suppliers as indicated.
(§5) The concentration of H-Leu-NHMec in the assay was held constant for each enzyme and ranged from 10 to 100 µM, depending on the enzyme. Reactions were measured at 37°C in white 384-well plates in a total volume of 25 or 50 µL using a spectrofluorimeter (BMG FLUOstar) with excitation at 355 nm and emission at 460 nm. The fluorescence signal was continuously monitored until a final steady-state velocity, v, was obtained. Inhibition constants were calculated from biological triplicates made from three different protein preparations.
(§6) Substrate concentrations were selected to allow sensitive detection of enzyme activity while not exceeding the Km for each enzyme. A compound concentration range was selected to obtain a complete inhibition curve (0%–100 %) in biological triplicate. Where possible, the Ki values were calculated by plotting the initial rates versus inhibitor concentration and fitting to the Morrison equation for tight-binding inhibitors in GraphPad Prism (V.8.4.1; non-linear regression method).

PfA-M1 = molecular target: T1, PfA-M1 (Plasmodium falciparum, UniProt O96935); assay: as above; type: biochemical, P. falciparum
T1 construct: made in house
T1 sequence (O96935 whole entry): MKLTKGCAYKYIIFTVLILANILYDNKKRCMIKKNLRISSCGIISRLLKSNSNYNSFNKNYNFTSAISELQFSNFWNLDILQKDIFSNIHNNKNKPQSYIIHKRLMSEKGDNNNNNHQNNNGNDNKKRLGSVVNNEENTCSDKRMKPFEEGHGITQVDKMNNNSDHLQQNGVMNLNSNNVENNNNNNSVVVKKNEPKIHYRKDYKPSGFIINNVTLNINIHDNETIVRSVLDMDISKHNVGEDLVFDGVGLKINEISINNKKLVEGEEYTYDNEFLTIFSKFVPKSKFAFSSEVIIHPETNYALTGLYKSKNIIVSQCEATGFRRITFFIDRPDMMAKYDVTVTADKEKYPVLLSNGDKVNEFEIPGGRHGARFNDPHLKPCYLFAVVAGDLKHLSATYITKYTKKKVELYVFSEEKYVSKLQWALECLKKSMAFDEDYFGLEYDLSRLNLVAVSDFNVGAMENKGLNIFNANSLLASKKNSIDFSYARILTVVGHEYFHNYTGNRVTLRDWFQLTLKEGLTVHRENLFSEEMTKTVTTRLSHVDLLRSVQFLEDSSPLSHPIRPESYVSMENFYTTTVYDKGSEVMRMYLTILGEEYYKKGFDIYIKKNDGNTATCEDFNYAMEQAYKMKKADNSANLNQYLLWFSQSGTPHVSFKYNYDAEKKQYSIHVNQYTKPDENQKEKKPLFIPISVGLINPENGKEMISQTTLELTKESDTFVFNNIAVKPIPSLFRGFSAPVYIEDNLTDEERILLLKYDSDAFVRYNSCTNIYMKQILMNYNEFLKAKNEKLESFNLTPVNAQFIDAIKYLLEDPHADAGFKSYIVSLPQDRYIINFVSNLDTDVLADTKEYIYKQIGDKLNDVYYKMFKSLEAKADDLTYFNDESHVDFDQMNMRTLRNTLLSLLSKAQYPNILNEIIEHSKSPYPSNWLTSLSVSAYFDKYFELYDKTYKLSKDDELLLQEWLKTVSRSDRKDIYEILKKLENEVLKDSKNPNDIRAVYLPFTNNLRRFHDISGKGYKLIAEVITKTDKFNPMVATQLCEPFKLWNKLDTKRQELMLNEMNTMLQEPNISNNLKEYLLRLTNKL
Method: as §4, §5, §6

Pf3D7 = assay: 72 h ring killing assay (SYBR Green I); type: cell-based, P. falciparum; details: Plasmodium falciparum, Pf3D7 ring stage
Method: Viability assays were performed as previously described ([7]). Sorbitol-synchronized Pf3D7 (a laboratory strain which is broadly sensitive to standard antimalarial drugs) at ring stages was cultured in the presence of drug serially diluted across a 96-well plate at 0.5% parasitemia and 2% hematocrit. Cultures were grown for 72 h before being placed at −80°C. After thawing, cultures were incubated with equal volumes of lysis buffer (20 mM Tris [pH 7.5], 5 mM EDTA, 0.008% [wt/vol] saponin, and 0.008% [vol/vol] Triton x-100) containing 0.2 µL/mL SYBR Green I Nucleic Acid Gel Stain (10,000× in dimethyl sulfoxide [DMSO]; Thermo Fisher). After 1 h incubation, fluorescence intensity was read on a Glomax Explorer Fully Loaded (Promega) at emission wavelengths of 500–550 nm and an excitation wavelength of 475 nm. Graphs were generated using GraphPad Prism (V.8.4.1). Parasite survival was compared with vehicle-treated cultures in three biological replicates performed in triplicate. This EC50 was used in asexual P. falciparum assays unless otherwise stated.

[5] = read-out: Inhibition of aminopeptidase activity

`CC(C)(C)CC(=O)NC(C(=O)NO)c1ccc(-c2cc(F)c(F)c(F)c2)cc1` (stereo not shown) [MMV1557817, N-(2-(hydroxyamino)−2-oxo-1-(3′,4′,5′-trifluoro-[1,1′-biphenyl]-4-yl)ethyl)-3,3-dimethylbutanamide] showed an EC50 ([1]; Plasmodium falciparum) of 0.098 µM, an EC50 [1] of 0.0981 µM and an EC50 ([2]; Plasmodium vivax) of 0.069 µM. It also gave an EC50 [2] of 0.0686 µM, an IC50 [3] of 1.47 µM and an IC50 [4] of 0.309 µM. It also gave a Ki (Pv-M1) of 0.019 µM, an inhibition at 1.25 µM (Pv-M1; [5]) of 96% and an inhibition at 10 µM (Pv-M1; [5]) of 100%. The Ki (PfA-M1; Pf M1, Morrison equation, read-out: Ki^(app) ± SEM) was 0.308 µM, the inhibition at 1.25 µM (PfA-M1; [5]) was 83% and the inhibition at 10 µM (PfA-M1; [5]) was 100%. It also gave an EC50 (Pf3D7) of 0.039 µM.

Work on `C[C@H]1[C@H](OC(=O)CCC(=O)O)O[C@@H]2O[C@@]3(C)CC[C@H]4[C@H](C)CC[C@@H]1[C@@]24OO3` [artesunate] yielded an EC50 ([1]; Plasmodium falciparum) of 0.0012 µM, an EC50 [1] of 0.001 µM and an EC50 ([2]; Plasmodium vivax) of 0.0006 µM. For the same compound, the EC50 [2] was 0.001 µM, the IC50 [3] was 0.051 ± 0.023 µM and the IC50 [4] was 0.026 ± 0.002 µM. The inhibition at 1.25 µM (Pv-M1; [5]) was 2.1%, the inhibition at 10 µM (Pv-M1; [5]) was 23.6% and the inhibition at 500 µM (Pv-M1; [5]) was 74%. For the same compound, the inhibition at 1000 µM (Pv-M1; [5]) was 68.2%, the inhibition at 1.25 µM (PfA-M1; [5]) was 4.8% and the inhibition at 10 µM (PfA-M1; [5]) was 11.9%. The inhibition at 500 µM (PfA-M1; [5]) was 16.8%, the inhibition at 1000 µM (PfA-M1; [5]) was 43.2% and the EC50 (Pf3D7) was 0.004 µM.
